One assay deals with GSPT1 (Homo sapiens (Human), UniProt P15170+Q96SW2). The assay can be described thus: Immunofluorescence assay for GSPT1 degradation in CAL-Si cells. The format is cell-based. An outline of the steps:
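CAL-Si cells on fibronectin were treated for 6 h with serial dilutions (30 μM to 0.1 nM). After fixation, GSPT1 was immunostained and imaged by high-content analysis, with DAPI/actin cell segmentation giving mean GSPT1 intensity per cell. DC50 came from nonlinear regression after normalization to controls.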

Assay [1] addresses Full length wild-type cereblon CRBN (Homo sapiens (Human), UniProt Q96SW2). The assay can be described thus: Fluorescence polarization (FP) assay, cereblon binding. The procedure, abridged:
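Full-length wild-type CRBN (80.0 nM) preincubated 30 min RT with compound (300–0.937 or 3000–9.3 nM, 12 points) in 20 mM HEPES pH 8.0, 150 NaCl, 0.5 mM TCEP, 0.05% Tween 20. Probe added at 5 nM final; FP read after 12 h (ex 590/em 675 nm), normalized to DMSO for IC50.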
On the technique in general: In fluorescence polarisation assays a small probe gives low polarisation when free and higher when bound to something large.

The target of the next assay is CRBN (Homo sapiens (Human), UniProt Q96SW2). The assay can be described thus: HTRF binding of compounds to CRBN. Conditions: read-out: HTRF Class (HTRF IC50, Cereblon binding). A general note: In TR-FRET formats the signal depends on donor and acceptor labels being close together.
Where [2] appears, read: CAL-Si cells, compounds with code A, read-out: DC50 value code.
[3] abbreviates: CAL-Si cells, treated 6 hours, read-out: Code, activity for GSPT1 degradation (DC50).
Where [4] appears, read: wild-type CRBN 80.0 nM, probe 5 nM, FP measured after 12 hours, read-out: rFP IC50.
The mark [5] stands for this setting: Table 4, read-out: IF Class (ability for GSPT1 degradation).
[6] abbreviates: cereblon binding, bound, read-out: IC50 value.

Read-outs that look alike come from different tables or passages of the source. Where only a bound is given, the exact number is not on record here.

One may read the IC50 as the midpoint of a concentration-inhibition curve.

Chain of Full length wild-type cereblon CRBN (Q96SW2 whole entry): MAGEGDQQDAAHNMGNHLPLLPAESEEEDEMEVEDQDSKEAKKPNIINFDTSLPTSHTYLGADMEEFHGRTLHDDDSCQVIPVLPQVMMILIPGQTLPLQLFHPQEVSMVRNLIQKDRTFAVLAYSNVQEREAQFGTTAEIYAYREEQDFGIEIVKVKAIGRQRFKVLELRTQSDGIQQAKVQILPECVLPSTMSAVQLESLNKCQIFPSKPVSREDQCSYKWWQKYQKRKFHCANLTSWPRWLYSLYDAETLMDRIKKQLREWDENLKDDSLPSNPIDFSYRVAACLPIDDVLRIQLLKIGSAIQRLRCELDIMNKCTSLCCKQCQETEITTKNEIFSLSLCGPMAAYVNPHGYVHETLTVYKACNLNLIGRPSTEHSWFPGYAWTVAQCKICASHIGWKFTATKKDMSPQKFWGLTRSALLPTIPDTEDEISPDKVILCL
Chain of CRBN (Q96SW2 whole entry, species assumed): as the sequence (Q96SW2 whole entry) above
Chain of GSPT1 (P15170 whole entry): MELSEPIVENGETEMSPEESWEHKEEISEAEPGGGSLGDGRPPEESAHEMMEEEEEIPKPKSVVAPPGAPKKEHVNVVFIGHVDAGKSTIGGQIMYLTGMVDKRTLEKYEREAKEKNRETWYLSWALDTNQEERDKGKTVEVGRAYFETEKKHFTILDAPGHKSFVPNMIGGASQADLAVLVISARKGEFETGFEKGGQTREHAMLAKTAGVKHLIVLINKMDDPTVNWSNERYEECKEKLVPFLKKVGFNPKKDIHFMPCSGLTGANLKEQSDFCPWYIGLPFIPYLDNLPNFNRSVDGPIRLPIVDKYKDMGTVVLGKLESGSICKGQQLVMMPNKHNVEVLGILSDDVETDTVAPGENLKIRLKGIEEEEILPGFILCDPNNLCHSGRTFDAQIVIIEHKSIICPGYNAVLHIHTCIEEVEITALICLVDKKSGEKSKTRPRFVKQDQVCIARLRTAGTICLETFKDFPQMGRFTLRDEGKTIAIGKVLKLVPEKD
Chain of GSPT1 (Q96SW2 whole entry): as the sequence (Q96SW2 whole entry) above
Chain of GSPT1 (Q16531 whole entry partner): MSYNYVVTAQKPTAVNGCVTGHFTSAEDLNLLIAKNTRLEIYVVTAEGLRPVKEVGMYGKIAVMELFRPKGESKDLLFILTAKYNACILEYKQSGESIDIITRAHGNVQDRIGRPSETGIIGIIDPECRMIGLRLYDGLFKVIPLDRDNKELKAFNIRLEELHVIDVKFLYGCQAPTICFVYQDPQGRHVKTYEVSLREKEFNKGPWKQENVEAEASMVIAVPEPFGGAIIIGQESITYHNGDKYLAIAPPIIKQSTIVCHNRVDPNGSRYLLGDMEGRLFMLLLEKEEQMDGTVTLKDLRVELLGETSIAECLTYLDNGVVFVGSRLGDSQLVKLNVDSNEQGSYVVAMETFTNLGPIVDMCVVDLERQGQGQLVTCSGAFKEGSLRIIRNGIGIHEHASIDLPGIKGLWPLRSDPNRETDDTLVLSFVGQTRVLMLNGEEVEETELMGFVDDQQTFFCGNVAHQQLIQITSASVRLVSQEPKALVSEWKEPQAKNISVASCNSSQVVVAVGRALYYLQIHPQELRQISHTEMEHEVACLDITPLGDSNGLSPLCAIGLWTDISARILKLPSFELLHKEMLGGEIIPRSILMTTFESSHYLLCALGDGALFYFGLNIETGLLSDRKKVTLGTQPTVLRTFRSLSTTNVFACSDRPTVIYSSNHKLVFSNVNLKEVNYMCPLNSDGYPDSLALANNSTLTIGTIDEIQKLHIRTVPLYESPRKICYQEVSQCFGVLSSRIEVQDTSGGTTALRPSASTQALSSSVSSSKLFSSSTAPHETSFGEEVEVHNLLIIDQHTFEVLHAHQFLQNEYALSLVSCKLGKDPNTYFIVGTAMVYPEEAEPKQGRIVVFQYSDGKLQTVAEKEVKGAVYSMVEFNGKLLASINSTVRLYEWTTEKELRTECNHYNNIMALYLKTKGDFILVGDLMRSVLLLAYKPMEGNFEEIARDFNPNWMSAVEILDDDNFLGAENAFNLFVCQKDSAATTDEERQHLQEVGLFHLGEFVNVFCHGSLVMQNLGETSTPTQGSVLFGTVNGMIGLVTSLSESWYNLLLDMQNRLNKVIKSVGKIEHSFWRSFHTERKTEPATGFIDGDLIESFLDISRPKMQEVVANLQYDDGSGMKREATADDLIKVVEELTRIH

With `Cc1ccc(NC(=O)OCc2ccc3c(c2F)C(=O)N(C2CCC(=O)NC2=O)C3)cc1Cl` (stereo not shown) [Compound 71, (2-(2,6-dioxopiperidin-3-yl)-4-fluoro-3-oxoisoindolin-5-yl)methyl(3-chloro-4-methylphenyl)carbamate], the DC50 at GSPT1 (setting [2]) and at GSPT1 (setting [3]) was less than 30 nM each time. Also, the IC50 in assay [1] (setting [4]) is greater than 1900 nM; at CRBN it was 100 to 1000 nM.
With `CC1(c2ccc(NC(=O)OCc3cc(F)c4c(c3)C(=O)N(C3CCC(=O)NC3=O)C4)cn2)CC1` (stereo not shown) [Compound 75, (2-(2,6-dioxopiperidin-3-yl)-7-fluoro-3-oxoisoindolin-5-yl)methyl(6-(1-methylcyclopropyl)pyridin-3-yl)carbamate], on GSPT1 (setting [5]), the DC50 was less than 30 nM. Besides, at CRBN, the IC50 is 100 to 1000 nM.
In the case of `Cc1ccc(NC(=O)OCc2ccc3c(c2Cl)C(=O)N(C2CCC(=O)NC2=O)C3)cc1Cl` (stereo not shown) [Compound 72, (4-chloro-2-(2,6-dioxopiperidin-3-yl)-3-oxoisoindolin-5-yl)methyl(3-chloro-4-methylphenyl) carbamate], the DC50 on GSPT1 (setting [5]) is greater than 300 nM. Further, on CRBN, the IC50 is greater than 1000 nM.
As to `COc1cc(COC(=O)Nc2cc(C)cc(C)c2)cc2c1CN(C1CCC(=O)NC1=O)C2=O` (stereo not shown) [Compound 52, (2-(2,6-dioxopiperidin-3-yl)-7-methoxy-3-oxoisoindolin-5-yl)methyl (3,5-dimethylphenyl)carbamate], the DC50 at GSPT1 (setting [3]) was 30 to 300 nM. In addition, the values for the IC50 in assay [1] (setting [6]) and in assay [1] (setting [4]) were less than 600 nM and no more than 600 nM, respectively.
As for `COc1cc(COC(=O)Nc2ccc(-c3ccccc3)nc2)cc2c1CN(C1CCC(=O)NC1=O)C2=O` (stereo not shown) [Compound 45, (2-(2,6-dioxopiperidin-3-yl)-7-methoxy-3-oxoisoindolin-5-yl)methyl(6-phenylpyridin-3-yl)carbamate], the DC50 at GSPT1 (setting [2]) and on GSPT1 (setting [3]) was less than 30 nM each time. For the same compound, the IC50 is less than 600 nM in assay [1] (setting [6]) and 600 to 1200 nM in assay [1] (setting [4]).
Regarding `O=C1CCC(N2Cc3c(F)cc(COC(=O)Nc4ccc(-c5ccccc5F)nc4)cc3C2=O)C(=O)N1` (stereo not shown) [Compound 18, (2-(2,6-dioxopiperidin-3-yl)-7-fluoro-3-oxoisoindolin-5-yl)methyl(6-(2-fluorophenyl)pyridin-3-yl)carbamate], the DC50 at GSPT1 (setting [2]) and on GSPT1 (setting [3]) was less than 30 nM in each case. In addition, the IC50 in assay [1] (setting [6]) is less than 600 nM; in assay [1] (setting [4]), 1200 to 1900 nM.
With `O=C1CCC(N2Cc3c(F)cc(COC(=O)Nc4cccc(OC5CC5)c4)cc3C2=O)C(=O)N1` (stereo not shown) [Compound 21, (2-(2,6-dioxopiperidin-3-yl)-7-fluoro-3-oxoisoindolin-5-yl)methyl (3-cyclopropoxyphenyl)carbamate], the DC50 at GSPT1 (setting [2]) and at GSPT1 (setting [3]) was less than 30 nM each time. In addition, the IC50 is less than 600 nM in assay [1] (setting [6]) and 1200 to 1900 nM in assay [1] (setting [4]).
With `COc1cc(COC(=O)Nc2ccc(N3CCCCC3C)nc2)cc2c1CN(C1CCC(=O)NC1=O)C2=O` (stereo not shown) [Compound 38, (2-(2,6-dioxopiperidin-3-yl)-7-methoxy-3-oxoisoindolin-5-yl)methyl(6-(2-methylpiperidin-1-yl)pyridin-3-yl)carbamate], the DC50 at GSPT1 (setting [2]) and on GSPT1 (setting [3]) was less than 30 nM throughout. Further, the figures for the IC50 in assay [1] (setting [6]) and in assay [1] (setting [4]) were less than 600 nM and no more than 600 nM, respectively.
As to `COc1cc(COC(=O)Nc2cc(Cl)cc(OC(F)F)c2)cc2c1CN(C1CCC(=O)NC1=O)C2=O` (stereo not shown) [Compound 49, (2-(2,6-dioxopiperidin-3-yl)-7-methoxy-3-oxoisoindolin-5-yl)methyl (3-chloro-5-(difluoromethoxy)phenyl)carbamate], the DC50 on GSPT1 (setting [2]) and at GSPT1 (setting [3]) was less than 30 nM throughout. Also, the values for the concentration for half-maximal inhibition (IC50) in assay [1] (setting [6]) and in assay [1] (setting [4]) were less than 600 nM and 600 to 1200 nM, respectively.
For the compound `COc1cc(COC(=O)Nc2cccc(OC(F)(F)F)c2)cc2c1CN(C1CCC(=O)NC1=O)C2=O` (stereo not shown) [Compound 55, (2-(2,6-dioxopiperidin-3-yl)-7-methoxy-3-oxoisoindolin-5-yl) methyl (3-(trifluoromethoxy)phenyl)carbamate], the DC50 at GSPT1 (setting [2]) and at GSPT1 (setting [3]) was less than 30 nM each time. The IC50 in assay [1] (setting [4]) lay within 600 to 1200 nM.

The values are drawn from patent publication US20240051936A1, “ISOINDOLINONE COMPOUNDS” (Monte Rosa Therapeutics, Inc., priority 2021, published 2024).
